PMC2137757 (The Journal of Experimental Medicine, 1964)
Where two headings read alike, the source gives them in different places.

Key:
[1] = tested on: menadione reductase (EC 1.6.5.2); experiment: Induction of menadione reductase in tissues; type: in vivo, rat; details: for Hepatic menadione reductase: measured at 48 hours
adrenal cortex [2] = experiment: Induced protection of adrenal against 7,12-DMBA; type: in vivo, rat
adrenal cortex [3] = details: cited from earlier work
lactic dehydrogenase = experiment: Lactic dehydrogenase level in liver; type: in vivo, rat; details: 3-MC 2.5 mg intravenous; Fig. 1
[4] = Solubility of hydrocarbons in sesame oil; details: room temperature; approximately
adrenal cortex [5] = details: cited from earlier work; remark: listed apart in the source
adrenal cortex [6] = experiment: Adrenal damage
[7] = tested on: acid-insoluble residue (DNA) of liver; details: 7,12-DMBA 5 mg i.v. at -4 hours; TdRH3 at 0 hours; liver at +20 hours; Fig. 3
[8] = tested on: deoxyribonucleic acid of adrenal; type: in vivo, rat; details: Table VII
[9] = Survival after a single feeding; details: 30 mg, animals invariably succumbed
[10] = 3-MC 2.5 mg i.v. on day 0 and day 1, tissues day 2, eight rats
[11] = rats bearing mammary cancers, fed 3-MC 10 mg, day 1, vs rats without 3-MC
[12] = 7,12-DMBA oral 10 mg at -48 hrs
[13] = 7,12-DMBA oral 10 mg at -48 hrs, 7,12-DMBA 5 mg i.v. at -4 hrs

In the case of `Cc1ccc2cc3c(ccc4ccccc43)c3c2c1CC3` [3-MC, 3-Methylcholanthrene], the Hepatic menadione reductase ([1]; 3-MC 2.5 mg i.v. at 0 hours, lipide at 24 hours, Fig. 5) is reported as 276 per cent of controls, the “Increase of menadione reductase in adrenal with respect to untreated controls” value [1, 10] is reported as 159 per cent and the “Increase of menadione reductase in lung with respect to untreated controls” value [1, 10] is reported as 164 per cent. The “Time of significant rise in menadione reductase in liver” value ([1]; 3-MC 2.5 mg i.v. only, Fig. 4) was 4 h, the “Time of first rise of menadione reductase in liver” value ([1]; 3-MC 2.5 mg intravenous, Fig. 1) was 3 h and the “Time of first increase of menadione reductase” value ([1]; 3-MC large dose (5 mg) i.v., Discussion) was 4 h. For the same molecule, the “Increase of menadione reductase in liver” value [1, 11] was “+224 per cent”, the “Increase of menadione reductase in mammary cancer” value [1, 11] was “+275 per cent” and the “Increase of menadione reductase in mammary gland” value [1, 11] was “+214 per cent”. For the same molecule, the Hepatic menadione reductase ([1]; sequence 3-MC 2.5 mg + 3-MC 2.5 mg i.v. at 0 and 24 hours) was 387 per cent of controls, the “Increase of menadione reductase concentration in liver” value ([1]; single feeding of 3-MC 0.5 mg, 24 hours, Fig. 2) was “twofold” and the “Increase of menadione reductase level in lung” value ([1]; single feeding of 3-MC 1 mg, 24 hours, Fig. 2) was 150 per cent. For the same molecule, the Adrenal protection (adrenal cortex [2]; 3-MC 0.5 mg on day -1 by feeding or injection in muscle or in vein) was “complete adrenal protection”, the “Duration of adrenal protection” value (adrenal cortex [2]; 3-MC 1 mg i.v., apoplexy when 7,12-DMBA injected on day 3) was 2 days and the “Duration of adrenal protection” value (adrenal cortex [2]; 3-MC 5 mg i.v., apoplexy when 7,12-DMBA injected on day 8) was 6 days. The Adrenal status (adrenal cortex [2]; 3-MC 2, 5, or 10 mg i.v. in the same emulsion with 7,12-DMBA 5 mg (simultaneous)) was “adrenal apoplexy in all of the animals”, the “Duration of adrenal protection” value (adrenal cortex [2]; 3-MC small dose (2 mg) i.v., Discussion) was 2 days and the Adrenal status (adrenal cortex [2]; Table IV, 3-MC 0.5 mg i.v. at -1 hr before 7,12-DMBA 5 mg i.v.) was “+”. The Adrenal status (adrenal cortex [2]; Table IV, 3-MC 0.5 mg i.v. at -2 hrs before 7,12-DMBA 5 mg i.v.) was “+”, the Adrenal status (adrenal cortex [2]; Table IV, 3-MC 0.5 mg i.v. at -3 hrs before 7,12-DMBA 5 mg i.v.) was 0 and the Adrenal status (adrenal cortex [2]; Table IV, 3-MC 0.5 mg i.v. at -4 hrs before 7,12-DMBA 5 mg i.v.) was 0. The Adrenal status (adrenal cortex [2]; Table IV, 3-MC 1 mg i.v. at -1 hr before 7,12-DMBA 5 mg i.v.) was “+”, the Adrenal status (adrenal cortex [2]; Table IV, 3-MC 1 mg i.v. at -2 hrs before 7,12-DMBA 5 mg i.v.) was “+” and the Adrenal status (adrenal cortex [2]; Table IV, 3-MC 1 mg i.v. at -3 hrs before 7,12-DMBA 5 mg i.v.) was 0. The Adrenal status (adrenal cortex [2]; Table IV, 3-MC 1 mg i.v. at -4 hrs before 7,12-DMBA 5 mg i.v.) was 0, the Adrenal status (adrenal cortex [2]; Table IV, 3-MC 2 mg i.v. at -1 hr before 7,12-DMBA 5 mg i.v.) was “+” and the Adrenal status (adrenal cortex [2]; Table IV, 3-MC 2 mg i.v. at -2 hrs before 7,12-DMBA 5 mg i.v.) was “+”. For the same molecule, the Adrenal status (adrenal cortex [2]; Table IV, 3-MC 2 mg i.v. at -3 hrs before 7,12-DMBA 5 mg i.v.) was 0, the Adrenal status (adrenal cortex [2]; Table IV, 3-MC 2 mg i.v. at -4 hrs before 7,12-DMBA 5 mg i.v.) was 0 and the Adrenal status (adrenal cortex [2]; Table IV, 3-MC 2.5 mg i.v. at -1 hr before 7,12-DMBA 5 mg i.v.) was “+”. For the same molecule, the Adrenal status (adrenal cortex [2]; Table IV, 3-MC 2.5 mg i.v. at -2 hrs before 7,12-DMBA 5 mg i.v.) was “+”, the Adrenal status (adrenal cortex [2]; Table IV, 3-MC 2.5 mg i.v. at -3 hrs before 7,12-DMBA 5 mg i.v.) was “+” and the Adrenal status (adrenal cortex [2]; Table IV, 3-MC 2.5 mg i.v. at -4 hrs before 7,12-DMBA 5 mg i.v.) was 0. The Adrenal status (adrenal cortex [2]; Table IV, 3-MC 5 mg i.v. at -1 hr before 7,12-DMBA 5 mg i.v.) was “+”, the Adrenal status (adrenal cortex [2]; Table IV, 3-MC 5 mg i.v. at -2 hrs before 7,12-DMBA 5 mg i.v.) was “+” and the Adrenal status (adrenal cortex [2]; Table IV, 3-MC 5 mg i.v. at -3 hrs before 7,12-DMBA 5 mg i.v.) was “+”. For the same molecule, the Adrenal status (adrenal cortex [2]; Table IV, 3-MC 5 mg i.v. at -4 hrs before 7,12-DMBA 5 mg i.v.) was “+”, the Adrenal status (adrenal cortex [2]; Table IV, 3-MC 10 mg i.v. at -1 hr before 7,12-DMBA 5 mg i.v.) was “+” and the Adrenal status (adrenal cortex [2]; Table IV, 3-MC 10 mg i.v. at -2 hrs before 7,12-DMBA 5 mg i.v.) was “+”. The Adrenal status (adrenal cortex [2]; Table IV, 3-MC 10 mg i.v. at -3 hrs before 7,12-DMBA 5 mg i.v.) was “+”, the Adrenal status (adrenal cortex [2]; Table IV, 3-MC 10 mg i.v. at -4 hrs before 7,12-DMBA 5 mg i.v.) was “+” and the “Prevention of adrenal injury by 7,12-DMBA” value (adrenal cortex [3]) was “prevented adrenal injury”. The “Change in concentration of lactic dehydrogenase in liver” value (lactic dehydrogenase) was “no significantchange” and the “Solubility w/v in sesame oil” value [4] was ~1.25 per cent.
For `Cc1c2ccccc2c(C)c2c1ccc1ccccc12` [7,12-DMBA, 7,12-Dimethylbenz[a]anthracene], the “Intravenous amount that itself causes adrenal necrosis” value (adrenal cortex [5]; intravenous) is listed as ≥ 2 mg, the Adrenal apoplexy (adrenal cortex [5]; single feeding 30 mg, adult rats) is listed as “induces adrenal apoplexy in all adult rats” and the Hepatic menadione reductase ([1]; 7,12-DMBA 5 mg i.v. at 0 hours, lipide at 24 hours, Fig. 5) is listed as 269 per cent of controls. The “Time of first rise in hepatic menadione reductase” value ([1]; 7,12-DMBA 5 mg intravenous, Fig. 3) was 3 h, the “Time of first elevation in hepatic menadione reductase” value ([1]; 7,12-DMBA 5 mg oral, Fig. 3) was 8 h and the Adrenal hemorrhage (adrenal cortex [6]; 5 mg given by vein) was “invariably caused adrenal hemorrhage”. The Adrenal apoplexy (adrenal cortex [6]; Table I, 7,12-DMBA 30 mg/kg i.v., age 30 days, adrenals 72 hours later, 8 rats) was 0, the Adrenal apoplexy (adrenal cortex [6]; Table I, 7,12-DMBA 30 mg/kg i.v., age 35 days, 8 rats) was 6/8 and the Adrenal apoplexy (adrenal cortex [6]; Table I, 7,12-DMBA 30 mg/kg i.v., age 40 days, 8 rats) was 8/8. For the same molecule, the Adrenal apoplexy (adrenal cortex [6]; Table I, 7,12-DMBA 30 mg/kg i.v., age 42 days, 8 rats) was 8/8, the Adrenal apoplexy (adrenal cortex [6]; Table I, 7,12-DMBA 30 mg/kg i.v., age 45 days, 8 rats) was 8/8 and the Adrenal apoplexy (adrenal cortex [6]; feeding of 5 mg) was “failed to induce apoplexy”. For the same molecule, the Rats protected (adrenal cortex [2]; 1 mg by intravenous injection on day -1, group of 8) was 5, the Adrenal protection (adrenal cortex [2]; 0.5 to 1.5 mg injected intravenously as protector on day -1) was “no amount was found which induced complete protection” and the Adrenal protection (adrenal cortex [2]; single feeding 2 mg to 10 mg, 1 day prior to 7,12-DMBA 5 mg i.v.) was “protected adrenals completely”. For the same molecule, the “Incorporation of tritium into acid-insoluble residue of liver” value [7] was 56 per cent of control values, the “Tritium content of adrenal, per cent of controls” value ([8]; 7,12-DMBA 5 mg i.v. at -4 hrs) was 40 per cent and the “Tritium content of adrenal” value [8, 12] was 0.120 ~clgm. The “Tritium content of adrenal, per cent of controls” value [8, 12] was 91 per cent, the “Tritium content of adrenal” value [8, 13] was 0.064 ~clgm and the “Tritium content of adrenal, per cent of controls” value [8, 13] was 48 per cent. For the same molecule, the “Protection of adrenal from damage by a large dose of 7,12-DMBA” value (adrenal cortex [3]; single preliminary feeding) was “protects” and the “Solubility w/v in sesame oil” value [4] was ~10 per cent.
In the case of `CN(C)c1ccc(C=Cc2ccccc2)cc1` [4-dimethylaminostilbene], the Time to death [9] is reported as ≤ 5 days and the Adrenal necrosis (adrenal cortex [6]; feeding, 30 mg) is reported as “did not induce necrosis”.
